The subject of the data set is human hepatocytes. Put plainly: Metabolic stability in hepatocytes. As to conditions: 1 μM, 1×10^6 cells/mL, 0-240 min. The class given is in vitro ADME. The method, boiled down:
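Cryopreserved human hepatocytes at 1×10^6 cells/mL in DMEM were exposed to 1 μM compound (0.1% DMSO) for 0–240 min at 37 °C, 5% CO2. Parent loss quantified by LC-MS/MS; t1/2 = 0.693/k and CLint = k/cell density from semi-log % remaining versus time.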

Consider `N#Cc1ccc(COc2cccc(N3CCN(Cc4nc5ccc(C(=O)O)cc5n4Cc4cncs4)[C@H]4C[C@H]43)n2)c(F)c1` (single isomer, unassigned) [Compound 2, 2-((5-(6-((4-Cyano-2-fluorobenzyl)oxy)pyridin-2-yl)-2,5-diazabicyclo[4.1.0]heptan-2-yl)methyl)-1-(thiazol-5-ylmethyl)-1H-benzo[d]imidazole-6-carboxylic Acid], for which the hHep t1/2 was more than 8 h.

Values taken from patent publication US12410163B2, “Compounds as GLP-IR agonists” (Terns Pharmaceuticals, Inc., priority 2022, dated 2025).
